pIC50: −log10 of the molar value.
Tests used:
[1] = system: cancer cells with KRAS G12C mutation; conditions: WO 2014/152588 and Cancer Discov. 6 (3), 316-29, 2016; cited from earlier work
[2] = target: G12C mutant of inactive KRAS (GDP) (Homo sapiens, UniProt P01116, G12C); conditions: WO 2014/152588 and Cancer Discov. 6 (3), 316-29, 2016; cited from earlier work
[3] = system: tumor-bearing mice expressing KRAS G12C mutation; conditions: WO 2015/054572 and Cell. 172 (3), 578-89, 2018; cited from earlier work
KRAS G12C = target: T1, KRAS G12C (Homo sapiens, UniProt P01116, G12C); experiment: Inhibitory activity on the KRAS G12C nucleotide (GDP-GTP) exchange reaction; format: biochemical; conditions: Bodipy FL GDP-bound KRAS G12C 25 nM; preincubation at 25° C. for 4 hours; SOS1 100 nM, GppNHp 1 μM, reaction for 30 minutes
T1 construct: KRAS G12C (amino acid region: 1-169)
Method in brief: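 Bodipy FL-GDP-loaded KRAS G12C (aa 1-169, 25 nM) preincubated with compound 4 h at 25 °C in pH 7.5 Tris buffer, 5% DMSO; exchange started with SOS1 (aa 564-1049, 100 nM) and 1 μM GppNHp for 30 min. Fluorescence change (ex 485/em 520 nm) normalized to DMSO and no-GppNHp controls; IC50 calculated.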

NCI-H358 cells = experiment: Growth inhibition activity on KRAS-G12C mutant cell line (NCI-H358) (in vitro); format: cell-based; conditions: Homo sapiens, 72 h, 3-day culture in the presence of the compound, CellTiter-Glo2.0
Method: Test Example 3: A Measurement Test of Growth Inhibition Activity on KRAS-G12C Mutant Cell Line (NCI-H358) (In Vitro) NCI-H358 cells (ATCC, Cat#: CRL-5807), which are a KRAS-G12C mutant human lung cancer cell line, were suspended in a 10% fetal bovine serum-containing RPMI1640 medium (manufactured by Fujifilm Wako Pure Chemical Corporation.). The cell suspension was seeded into each well of a 384-well flat-bottom microplate and cultured in an incubator containing 5% CO2 gas at 37° C. for 1 day. The test compound was dissolved in DMSO and diluted with DMSO to give a concentration 500 times the final concentration. The solution of the test compound in DMSO was diluted with the medium used for suspending cells and added to each well of the cell-culture plate to give a DMSO final concentration of 0.2%, followed by culture in an incubator containing 5% CO2 gas at 37° C. for another 3 days. The cell count after 3-day culture in the presence of the compound was measured using CellTiter-Glo2.0 (manufactured by Promega Corporation) in accordance with the protocol recommended by Promega Corporation. The growth inhibition rate was calculated from the following equation, and the concentration of the test compound at which 50% inhibition was achieved (IC50 (nM)) was determined. […] Growth Inhibition Rate (%)=(C−T)/(C)×100 T: the emission intensity in a well into which a test compound was added. C: the emission intensity in a well into which a test compound was not added.

G12C K-Ras4B (1-169) = target: T2, G12C K-Ras4B (1-169) (Homo sapiens, UniProt P01116, G12C); experiment: Test of compounds to determine whether they bind to KRASG12C (LC-MS compound binding rate); conditions: final compound concentration of 2 μM, 1 μM protein, 25° C. for 2 hours
T2 construct: G12C K-Ras4B (1-169)
Method: Test Example 1: A Test of Compounds to Determine Whether they Bind to KRASG12C
Test compounds were prepared in the form of a 10 mM DMSO solution.
Wt K-Ras4B (1-169) and G12C K-Ras4B (1-169) proteins were mixed and diluted with a buffer (1×TBS, 0.1 mM TCEP) to prepare individual 1 μM protein solutions. A 10 mM test compound was diluted tenfold with DMSO to make a 1 mM solution, and then diluted fivefold with DMSO to make a 200 μM solution. The 200 μM solution was further diluted fivefold to make a 40 μM solution. When the final compound concentration was […], 1 μL of a 200 μM test compound was added to 19 μL of a 1 μM protein solution. When the final compound concentration was 2 μM, 1 μL of a 40 μM test compound was added to 19 μL of a 1 μM protein solution. The mixtures were stored in an incubator at 25° C. for 2 hours, and 80 μL of a 1×TBS solution containing 0.2% formic acid was added thereto to end the reaction, followed by LC-MS measurement. LC-MS measurement was performed using Xevo G2-S Q-Tof manufactured by Waters, and reverse-phase chromatography was performed with a desalting column. A mass spectrum of positive ions was obtained by electrospray. For a mass spectrum, a spectrum of a polyvalent ion was collectively converted to a molecular weight by using OpenLynx software by the MaxEnt technique, and a compound binding rate was obtained from the ratio of a signal intensity that corresponds to the molecular weight of a protein to a signal intensity that corresponds to the molecular weight of a compound binding to the protein.
By obtaining the compound binding rate for wt K-Ras4B (1-169) and the compound binding rate for G12C K-Ras4B (1-169) at the same time, information of the selectivity for G12C K-Ras4B (1-169) was obtained at the same time.
The test compounds were measured at their final compound concentration of 2 μM. […] Almost none of the compounds of the disclosure bound to wt K-Ras4B (1-169). The “binding rate” (%) for each of wt K-Ras4B (1-169) and G12C K-Ras4B (1-169) refers to the ratio of the signal intensity of bound forms to the sum of the signal intensity of non-bound forms and the signal intensity of bound forms.

SMILES | pIC50 (KRAS G12C) | pIC50 (NCI-H358 cells) | also measured
C=CC(=O)N1CC(N2CCN(C(=O)CNc3cc(C4(C)CC4)c(Cl)cc3O)CC2)C1 [ARS-853] | – | – | apoptosis induction [1]: inducing apoptosis; binding to KRAS G12C [2]: binds to the cysteine of the G12C mutant of inactive KRAS (GDP)
C=CC(=O)N1CCN(c2ncnc3c(F)c(-c4c(O)cccc4F)c(Cl)cc23)CC1 [ARS-1620] | – | – | antitumor action [3]: exerts antitumor action
C=CC(=O)N1CC(NC(=O)c2c(Cl)nc(CNc3n[nH]c4cc(Cl)c(C(C)(C)C)cc34)n2[C@@H]2CCN(CC(F)F)C2)C1 [Example 113, (R)-N-(1-acryloylazetidin-3-yl)-2-(((5-(tert-butyl)-6-chloro-1H-indazol-3-yl)amino)methyl)-4-chloro-1-(1-(2,2-difluoroethyl)pyrrolidin-3-yl)-1H-imidazole-5-carboxamide] | 8.30 | 7.66 | –
C=CC(=O)N1CC(NC(=O)c2c(Cl)nc(CNc3n[nH]c4cc(Cl)c(C(C)(C)C)cc34)n2[C@H]2CCN(CC(F)F)C2)C1 [Example 115, (S)-N-(1-acryloylazetidin-3-yl)-2-(((5-(tert-butyl)-6-chloro-1H-indazol-3-yl)amino)methyl)-4-chloro-1-(1-(2,2-difluoroethyl)pyrrolidin-3-yl)-1H-imidazole-5-carboxamide] | 8.15 | 7.25 | –
C=CC(=O)N1CC(NC(=O)c2cnc(CNc3n[nH]c4cc(Cl)c(Br)cc34)n2C)C1 [Reference Example 1, N-(1-acryloylazetidin-3-yl)-2-(((5-bromo-6-chloro-1H-indazol-3-yl)amino)methyl)-1-methyl-1H-imidazole-5-carboxamide, reference compound] | < 5.00 | < 5.00 | binding rate for G12C K-Ras4B (1-169) (G12C K-Ras4B (1-169)): E (a binding rate of less than 20% is rated “E.”)

Source: patent US20230181536A1, “ANTICANCER COMBINATION THERAPY WITH N-(1-ACRYLOYL-AZETIDIN-3-YL)-2-((1H-INDAZOL-3-YL)AMINO)METHYL)-1H-IMIDAZOLE-5-CARBOXAMIDE INHIBITOR OF KRAS-G12C” (TAIHO PHARMACEUTICAL CO., LTD., priority 2020, published 2023)
